# Legend:
# Neutrophil collagenase = Neutrophil collagenase (Homo sapiens, UniProt P22894); experiment: Inhibition of MMP8
# [1] = biological target: Matrix metalloproteinase-14 (Homo sapiens, UniProt P50281); experiment: Inhibition of MMP14
# Interstitial collagenase = biological target: T1, Interstitial collagenase (Homo sapiens, UniProt P03956); experiment: Inhibition of MMP1
# T1 sequence (P03956 whole entry): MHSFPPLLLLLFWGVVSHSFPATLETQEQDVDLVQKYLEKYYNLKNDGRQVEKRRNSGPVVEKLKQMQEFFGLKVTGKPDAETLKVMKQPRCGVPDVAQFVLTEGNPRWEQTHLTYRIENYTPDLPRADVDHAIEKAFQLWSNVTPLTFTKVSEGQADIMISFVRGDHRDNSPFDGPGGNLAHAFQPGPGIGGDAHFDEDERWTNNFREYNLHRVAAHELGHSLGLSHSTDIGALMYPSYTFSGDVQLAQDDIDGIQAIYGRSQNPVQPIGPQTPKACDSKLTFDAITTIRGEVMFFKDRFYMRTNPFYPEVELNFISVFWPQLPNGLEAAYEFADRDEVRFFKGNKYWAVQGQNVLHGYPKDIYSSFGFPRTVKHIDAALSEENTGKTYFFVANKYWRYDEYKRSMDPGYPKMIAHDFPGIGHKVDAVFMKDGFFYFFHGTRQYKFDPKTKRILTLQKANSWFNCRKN
# [2] = biological target: Matrix metalloproteinase-16 (Homo sapiens, UniProt P51512); experiment: Inhibition of MMP16
# Matrix metalloproteinase-16, sequence (P51512 whole entry): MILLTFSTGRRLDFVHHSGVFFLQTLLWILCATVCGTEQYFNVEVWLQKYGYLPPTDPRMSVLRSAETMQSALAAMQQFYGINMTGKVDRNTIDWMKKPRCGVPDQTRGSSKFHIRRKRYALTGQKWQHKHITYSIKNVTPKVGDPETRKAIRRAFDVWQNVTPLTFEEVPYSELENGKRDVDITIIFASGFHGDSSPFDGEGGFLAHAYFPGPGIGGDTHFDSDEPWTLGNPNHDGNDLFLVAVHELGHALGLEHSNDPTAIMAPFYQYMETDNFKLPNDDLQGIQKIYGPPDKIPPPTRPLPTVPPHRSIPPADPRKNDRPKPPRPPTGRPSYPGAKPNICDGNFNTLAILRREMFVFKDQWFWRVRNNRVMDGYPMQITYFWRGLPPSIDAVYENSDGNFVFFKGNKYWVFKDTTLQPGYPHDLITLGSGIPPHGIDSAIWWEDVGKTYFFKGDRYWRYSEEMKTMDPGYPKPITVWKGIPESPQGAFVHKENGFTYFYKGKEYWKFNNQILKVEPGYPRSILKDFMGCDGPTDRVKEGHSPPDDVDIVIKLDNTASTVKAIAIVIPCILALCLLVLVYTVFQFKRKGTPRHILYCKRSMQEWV
# [3] = biological target: 72 kDa type IV collagenase (Homo sapiens, UniProt P08253); experiment: Inhibition of human recombinant MMP2 transfected in mouse melanoma cells; format: cell-based
# 72 kDa type IV collagenase, sequence (P08253 whole entry): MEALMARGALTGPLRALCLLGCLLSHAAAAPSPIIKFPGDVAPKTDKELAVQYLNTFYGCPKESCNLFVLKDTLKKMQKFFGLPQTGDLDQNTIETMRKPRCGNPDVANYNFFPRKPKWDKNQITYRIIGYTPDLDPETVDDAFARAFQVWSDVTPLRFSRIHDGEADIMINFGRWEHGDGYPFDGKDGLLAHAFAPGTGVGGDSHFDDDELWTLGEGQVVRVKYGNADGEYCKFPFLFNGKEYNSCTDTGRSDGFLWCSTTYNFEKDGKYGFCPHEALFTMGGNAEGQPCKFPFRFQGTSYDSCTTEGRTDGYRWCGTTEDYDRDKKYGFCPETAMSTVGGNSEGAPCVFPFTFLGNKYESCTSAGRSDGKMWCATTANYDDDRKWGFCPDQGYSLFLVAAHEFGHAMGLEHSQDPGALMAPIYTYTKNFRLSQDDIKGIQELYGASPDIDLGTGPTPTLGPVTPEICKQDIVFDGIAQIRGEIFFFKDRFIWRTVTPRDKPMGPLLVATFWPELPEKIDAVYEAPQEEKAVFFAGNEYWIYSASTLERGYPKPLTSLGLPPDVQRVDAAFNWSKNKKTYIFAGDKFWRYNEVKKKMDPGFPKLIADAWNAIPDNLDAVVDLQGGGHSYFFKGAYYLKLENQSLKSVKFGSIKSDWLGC
# [4] = biological target: Matrix metalloproteinase-9 (Homo sapiens, UniProt P14780); experiment: Inhibition of MMP9
# Matrix metalloproteinase-9, sequence (P14780 whole entry): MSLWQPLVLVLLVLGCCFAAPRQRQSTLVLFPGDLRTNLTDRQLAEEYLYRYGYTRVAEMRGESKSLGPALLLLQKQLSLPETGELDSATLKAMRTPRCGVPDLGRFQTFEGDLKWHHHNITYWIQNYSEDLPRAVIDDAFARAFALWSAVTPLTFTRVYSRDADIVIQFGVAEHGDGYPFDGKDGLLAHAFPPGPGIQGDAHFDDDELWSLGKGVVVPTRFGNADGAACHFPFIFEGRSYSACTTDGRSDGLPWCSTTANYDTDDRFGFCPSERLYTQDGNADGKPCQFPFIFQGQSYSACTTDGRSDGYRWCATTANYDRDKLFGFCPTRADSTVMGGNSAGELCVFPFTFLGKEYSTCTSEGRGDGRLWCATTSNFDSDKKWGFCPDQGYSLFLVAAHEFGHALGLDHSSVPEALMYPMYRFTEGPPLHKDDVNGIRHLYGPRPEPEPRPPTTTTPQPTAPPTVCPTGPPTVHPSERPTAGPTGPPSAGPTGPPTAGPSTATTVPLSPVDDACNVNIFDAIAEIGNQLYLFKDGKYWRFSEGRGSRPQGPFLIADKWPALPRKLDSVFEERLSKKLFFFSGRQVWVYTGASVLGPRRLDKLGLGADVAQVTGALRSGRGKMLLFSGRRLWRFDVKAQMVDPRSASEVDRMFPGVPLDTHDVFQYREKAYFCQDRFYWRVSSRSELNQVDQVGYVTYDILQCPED
# Carbonic anhydrase 1 = Carbonic anhydrase 1 (Homo sapiens, UniProt P00915)
# Carbonic anhydrase 1, sequence (P00915 whole entry): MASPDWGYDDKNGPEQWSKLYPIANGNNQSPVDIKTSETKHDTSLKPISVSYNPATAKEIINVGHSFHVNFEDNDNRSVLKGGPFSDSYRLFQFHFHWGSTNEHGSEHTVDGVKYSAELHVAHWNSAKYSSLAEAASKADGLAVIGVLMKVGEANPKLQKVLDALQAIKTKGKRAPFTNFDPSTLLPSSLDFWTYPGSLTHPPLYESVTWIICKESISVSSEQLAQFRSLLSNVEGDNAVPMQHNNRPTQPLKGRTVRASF
# Description: Inhibition of human recombinant CA1 by stopped-flow CO2 hydrase assay
# Collagenase 3 = Collagenase 3 (Homo sapiens, UniProt P45452)
# Homo sapiens [5] = species: Homo sapiens; experiment: Selectivity for human recombinant CA9 to human recombinant CA2
# Homo sapiens [6] = species: Homo sapiens; experiment: Selectivity for human recombinant CA9 to human recombinant CA1
# [7] = biological target: Disintegrin and metalloproteinase domain-containing protein 17 (Homo sapiens, UniProt P78536); experiment: Inhibition of TACE
# Disintegrin and metalloproteinase domain-containing protein 17, sequence (P78536 whole entry, the tested form may be a part): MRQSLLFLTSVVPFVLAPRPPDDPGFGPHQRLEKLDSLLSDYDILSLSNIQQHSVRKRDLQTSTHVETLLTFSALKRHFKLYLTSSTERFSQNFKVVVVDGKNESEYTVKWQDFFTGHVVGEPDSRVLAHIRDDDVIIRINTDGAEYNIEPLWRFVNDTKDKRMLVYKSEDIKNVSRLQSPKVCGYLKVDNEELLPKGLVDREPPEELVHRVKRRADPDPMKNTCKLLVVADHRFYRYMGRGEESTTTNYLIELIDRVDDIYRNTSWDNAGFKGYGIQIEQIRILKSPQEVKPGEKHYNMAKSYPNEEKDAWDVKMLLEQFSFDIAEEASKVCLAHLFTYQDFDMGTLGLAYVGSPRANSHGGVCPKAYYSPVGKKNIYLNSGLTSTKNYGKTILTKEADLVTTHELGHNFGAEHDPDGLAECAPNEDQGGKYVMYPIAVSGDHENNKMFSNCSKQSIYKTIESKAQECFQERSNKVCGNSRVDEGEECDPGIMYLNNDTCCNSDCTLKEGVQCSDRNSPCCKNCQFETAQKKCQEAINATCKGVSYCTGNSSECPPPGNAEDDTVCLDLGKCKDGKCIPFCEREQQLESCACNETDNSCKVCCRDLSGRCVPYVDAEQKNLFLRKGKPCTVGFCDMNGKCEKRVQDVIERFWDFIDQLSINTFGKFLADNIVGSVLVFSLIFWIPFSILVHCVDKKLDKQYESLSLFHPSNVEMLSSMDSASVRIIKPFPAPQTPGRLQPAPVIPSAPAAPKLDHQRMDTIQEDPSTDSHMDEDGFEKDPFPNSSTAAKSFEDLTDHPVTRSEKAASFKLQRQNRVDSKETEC
# Carbonic anhydrase 9 = Carbonic anhydrase 9 (Homo sapiens, UniProt Q16790); experiment: Inhibition of human recombinant CA9 catalytic domain by stopped-flow CO2 hydrase assay
# Carbonic anhydrase 2 = Carbonic anhydrase 2 (Homo sapiens, UniProt P00918)
# Description: Inhibition of human recombinant CA2 by stopped-flow CO2 hydrase assay
# Neutrophil collagenase, sequence (P22894 whole entry): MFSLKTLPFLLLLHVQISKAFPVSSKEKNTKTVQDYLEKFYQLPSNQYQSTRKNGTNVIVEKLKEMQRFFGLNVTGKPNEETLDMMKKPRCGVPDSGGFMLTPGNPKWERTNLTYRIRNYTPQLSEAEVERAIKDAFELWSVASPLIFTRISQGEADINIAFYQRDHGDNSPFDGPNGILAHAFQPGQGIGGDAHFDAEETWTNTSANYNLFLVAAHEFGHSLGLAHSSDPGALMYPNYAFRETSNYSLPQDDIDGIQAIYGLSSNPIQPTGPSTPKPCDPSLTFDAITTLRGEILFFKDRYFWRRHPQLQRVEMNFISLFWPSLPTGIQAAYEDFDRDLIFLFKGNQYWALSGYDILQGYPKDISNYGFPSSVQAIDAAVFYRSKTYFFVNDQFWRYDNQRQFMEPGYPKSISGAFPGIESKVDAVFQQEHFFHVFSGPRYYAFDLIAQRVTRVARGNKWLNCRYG
Structure (SMILES),IC50 (Neutrophil collagenase),IC50 [1],IC50 (Interstitial collagenase),IC50 [2],IC50 [3],IC50 [4],Ki (Carbonic anhydrase 1),IC50 (Collagenase 3),Selectivity ratio (Homo sapiens [5]),Selectivity ratio (Homo sapiens [6]),IC50 [7],Ki (Carbonic anhydrase 9),Ki (Carbonic anhydrase 2)
NS(=O)(=O)c1ccc(CCNC(=O)CN(CC(=O)NO)Cc2ccccc2)cc1,,> 100000 nM,,,> 100000 nM,> 300000 nM,2340 nM,,,,,,
NS(=O)(=O)c1ccc(CCNC(=O)CN(CC(=O)NO)S(=O)(=O)c2ccc(-c3ccccc3)cc2)cc1,35 nM,260 nM,542 nM,186 nM,16.2 nM,66 nM,,,,,,,
CC(C)[C@H](C(=O)NO)N(CC(=O)O)S(=O)(=O)c1ccc(-c2ccccc2)cc1,4.3 nM,306 nM,236 nM,,24.7 nM,27.7 nM,,,1.3,7.9,,,
COc1ccc(S(=O)(=O)N(Cc2cccnc2)[C@@H](C(=O)NO)C(C)C)cc1 [CGS-27023A],,,,6.8 nM,,,,,,,,,
NS(=O)(=O)c1ccc(CCNC(=O)CN(CC(=O)O)S(=O)(=O)c2ccc(Oc3ccccc3)cc2)cc1,4360 nM,8950 nM,,,2230 nM,,3430 nM,,,,,6.4 nM,
COc1ccc(S(=O)(=O)N(CC(=O)O)[C@@H](C(=O)NO)C(C)C)cc1,29.2 nM,353 nM,235 nM,,145 nM,62 nM,,,1.3,7.9,,,
NS(=O)(=O)c1ccc(CCNC(=O)CN(CC(=O)O)S(=O)(=O)c2ccc(-c3ccccc3)cc2)cc1,8200 nM,33900 nM,,,5120 nM,,116 nM,,,,,3.8 nM,
COc1ccc(S(=O)(=O)N(CC(=O)O)CC(=O)NO)cc1,1010 nM,1690 nM,6770 nM,996 nM,193 nM,322 nM,,,,,,,

# The remaining lines, values ahead:
IC50 (Neutrophil collagenase),IC50 [1],IC50 (Interstitial collagenase),IC50 [2],IC50 [3],IC50 [4],Ki (Carbonic anhydrase 1),IC50 (Collagenase 3),Selectivity ratio (Homo sapiens [5]),Selectivity ratio (Homo sapiens [6]),IC50 [7],Ki (Carbonic anhydrase 9),Ki (Carbonic anhydrase 2),Structure (SMILES)
0.74 nM,2.1 nM,143 nM,1 nM,1.57 nM,0.51 nM,,,,,,,,NS(=O)(=O)c1ccc(CCNC(=O)CN(CC(=O)NO)S(=O)(=O)c2ccc(Oc3ccccc3)cc2)cc1
0.4 nM,3.9 nM,59 nM,1.56 nM,0.5 nM,0.77 nM,,0.33 nM,1.3,7.9,2290 nM,,,CC(C)[C@H](C(=O)NO)N(CC(=O)O)S(=O)(=O)c1ccc(Oc2ccccc2)cc1
59 nM,89.8 nM,532 nM,44 nM,25.3 nM,53.7 nM,1770 nM,,,,,13 nM,,COc1ccc(S(=O)(=O)N(CC(=O)NO)CC(=O)NCCc2ccc(S(N)(=O)=O)cc2)cc1
3.7 nM,14 nM,1530 nM,11.4 nM,1.2 nM,3.2 nM,,1.6 nM,1.3,7.9,,,,O=C(O)CN(CC(=O)NO)S(=O)(=O)c1ccc(Oc2ccccc2)cc1
0.29 nM,0.32 nM,7.8 nM,0.31 nM,0.35 nM,0.21 nM,730 nM,0.12 nM,1.3,,55 nM,3.3 nM,4.2 nM,CC(C)[C@H](C(=O)NO)N(CC(=O)NCCc1ccc(S(N)(=O)=O)cc1)S(=O)(=O)c1ccc(Oc2ccccc2)cc1

# From ChEMBL document CHEMBL1151743, “Dual inhibitors of matrix metalloproteinases and carbonic anhydrases: iminodiacetyl-based hydroxamate-benzenesulfonamide conjugates” (J Med Chem, 2008)
